The text below walks through data of US20210198629A1, “COMPOSITIONS AND METHODS FOR INCREASING BEIGING OF WHITE ADIPOSE TISSUE” (University of Georgia Research Foundation, Inc., priority 2018, published 2021).

The subject of one data set is DIO mice. Kind of data set: Indirect calorimetry of DIO mice after oral BI-7273. Format: in vivo, mouse. The method, then:
Indirect calorimetry was performed on a Columbus Instruments CLAMS system equipped with 8 metabolic cages. Oxygen consumption (VO2; ml/min) and carbon dioxide production (VCO2; ml/min) were measured at 22° C. with 12-hr:12-hr dark:light cycles. Total energy expenditure was estimated using the equation published before […]). Data were normalized to the body weight of each animal. Physical activity is measured by counting infrared beam breaking events.
Next, whether oral administration of BI-7273 is sufficient to increase the whole-body energy expenditure was investigated. DIO models were gavaged with BI-7273 or control 0.5% Natrosol for 14 days as described above and later housed individually in metabolic cages for 10 days. […] HFD-fed control DIO models had very low respiratory exchange ratios (RER; ˜0.6 in light cycles and 0.72 in dark cycles), which is consistent with their high lipid utilization and insulin resistance (IR) states.

A further data set has as its system AML xenograft model. To be noted: cited from earlier work.
For data set [1], the system named is differentiated white adipocytes. Kind of data set: RT-qPCR of markers after treating differentiated white adipocytes. The format is cell-based, mouse. To be noted: differentiated white adipocytes treated for 48 hours. The method, then: To differentiate into adipocytes, white adipose progenitor cells were cultured in growth media to reach 100% confluence for 1 day. The growth media was changed into basal induction medium (DMEM high glucose containing 10% FBS, 0.5 mM isobutylmethylxanthine, […] indomethacin, 2 μg/mL dexamethasone, 850 nM insulin, 1% penicillin/streptomycin). After 2-day induction, the media was changed to basal differentiation medium (DMEM high glucose containing 10% FBS, 850 nM insulin, 1% penicillin/streptomycin) and further incubated for 4-5 days. To differentiate beige adipocytes, fully confluent white adipose progenitor cells were incubated with the above induction medium supplemented with […] rosiglitazone and 1 nM T3 for 2 days and further differentiated in the basal differentiation medium supplemented with […] rosiglitazone and 1 nM T3 for 4-5 days.
Total RNA was isolated from tissue or cell culture using TRIzol. Total RNA (500 ng) from tissues or cell culture was used in 25 μL reverse transcription reactions (Maxima; Life technologies) and diluted into 250 μL. Diluted cDNA (2 μL) was used in quantitative PCR reactions (SsoAdvanced™ Universal SYBR Green mix; Bio-Rad) on a BioRad CFX384™ Real-Time PCR Detection System. Cq-values were determined and expression values were calculated by BioRad CFX Manager™ Software. Relative mRNA expression values were normalized to inner reference genes Rps18 and Tbp of each biological sample. For mitochondrial copy number qPCR, mitochondrial Cox2 gene was amplified and normalized to genomic β-globin gene.
In the above lentivirus-based primary/secondary screenings, sgRNA-mediated genome editing and consequent gene KO could occur either in proliferative adipose progenitor cells or fully-differentiated adipocytes. As such, Brd9 may function as a beige lineage repressor by either repressing the beige adipocyte lineage differentiation or the white-to-beige adipocyte conversion. To distinguish the above possibilities, white adipocytes were differentiated from white adipose progenitor cells under the basal differentiation condition and the differentiated white adipocytes were treated with BI-7273 for 48 hours. […] Therefore, BI-7273 likely induces the beige lineage determination and differentiation of white adipose progenitor cells by inhibiting BRD9.
In general terms: Quantitative PCR measures a nucleic acid by following its amplification.

For data set [2] the following is noted: in vivo; cited from earlier work.
Data set [3] concerns acute myeloid leukemia (AML) cells. The settings on record: AML cells in vitro; cited from earlier work.
The next data set concerns type 2 diabetic DIO mice. Kind of data set: Blood glucose, HbA1c, HOMA-IR, IPGTT, IPITT in DIO mice after oral BI-7273. Format: in vivo, mouse. The method, then:
Blood samples were taken from the tail vein and measured on HbA1c cartridges (5035C) loaded in a DCA Vantage Analyzer (Siemens).
IPGTT was performed after 16 hrs fasting. Glucose (2 g kg^−1 body weight) was injected intraperitoneally. Blood samples were taken from the tail vein. Glucose levels were measured at 0, 15, 30, 60, and 120 min after glucose injection using a glucometer (OneTouch, Ultra 2).
IPITT was performed after 6 hrs fasting. Insulin (0.75 U kg^−1 body weight, Roche Risch-Rotkreuz, Switzerland) was injected intraperitoneally. Blood samples were taken from the tail vein. Glucose levels were measured at 0, 15, 30, 60, and 120 min after insulin injection using a glucometer (OneTouch, Ultra 2).
Next, whether BI-7273 oral administration is sufficient to protect DIO models from type 2 diabetes was investigated. Before gavage (3 months after HFD feeding), DIO models developed diabetes as evidenced by 1) averaged random non-fasting blood glucose level at ˜250 mg/dL; and 2) averaged glycated hemoglobin (HbA1c) level at 6.5% (FIG. 6A, B). […] Upon HFD feeding, C57BL/6 mice are predisposed to type 2 diabetes, which is characterized by insulin resistance (averaged HOMA-IR index=95; FIG. 6C)(32). BI-7273 oral administration lowered HOMA-IR index (to ˜55%; FIG. 6C), indicating much improved β-cell function and insulin resistance.

The mark [4] stands for this setting: light and dark cycles, after 14-day gavage.
[5] abbreviates: 14-day oral administration, 1 month HFD refeeding.

As to `COc1cc(-c2cn(C)c(=O)c3cnccc23)cc(OC)c1CN(C)C` [BI-7273, 4-[4-[(dimethylamino)methyl]-3,5-dimethoxyphenyl]-2-methyl-2,7-naphthyridin-1-one], the “respiratory exchange ratio (RER)” value in the data set on DIO mice (light and dark cycles) is on record as “markedly increased”. In the data set with DIO mice (setting [4]), the “oxygen consumption (VO2)” value is reported as “drastically increased” and the “total energy expenditure (E.E.)” value is reported as “drastically increased”. Besides, the physical activity result in the data set with DIO mice (vs control, light or dark cycles) is on record as “comparable”. The antitumor activity result in the data set with AML xenograft model is reported as “antitumor activity”. Further, in data set [1], the “Ucp1 mRNA increase” value worked out at 1.6 fold; the “adipogenic markers (Pparg2, Leptin, Adiponectin, Fabp4)” value was “not affected”; the “mitochondrial markers (Ndufb2, Sdha, Uqcrc2, Cox8b, Atp5a1) increase” value is recorded as 1.7-2.0 fold; the “other beige lineage markers (Pgc1α, Cedia, Dio2, Elovl3)” value was “did not raise”. Further, the bioavailability result in data set [2] was “good and high”. In data set [3], the MYC expression entry is given as “suppress” and the rapid cell proliferation entry was “suppress”. In addition, in the data set with type 2 diabetic DIO mice (100 mg/kg/day oral for 14 days, 6.5% before gavage), the HbA1c level was around 5%. Besides, the “random non-fasting blood glucose level” value with type 2 diabetic DIO mice (100 mg/kg/day oral for 14 days, ~250 mg/dL before gavage) is reported as 130 mg/dL. Further, in the data set with type 2 diabetic DIO mice (setting [5]), the “glucose tolerance (IPGTT)” value was “drastically improved” and the “insulin sensitivity (IPITT)” value is recorded as “drastically improved”. The HOMA-IR index in the data set on type 2 diabetic DIO mice (oral administration, averaged index 95 upon HFD feeding) is recorded as around 55%.
